In brackets after ≈: the same amount, converted by molar mass.
Key:
Human ACC2 = Human ACC2 (Homo sapiens, UniProt O00763); assay: In vitro ACC2 inhibition assay (ADP-Glo), human ACC2; format: biochemical; settings: 5 nM ACC2, 20 μM ATP, 20 μM acetyl-CoA
[1] = test system: C. parapsilosis ATCC 22019; assay: Anti-Fungal Activity Assay (broth microtiter MIC), C. parapsilosis; format: cell-based, Candida parapsilosis; settings: Lodderomyces parapsilosis, ATCC22019, 48 h, 3 replicates; MIC recorded at 48 h; read-out: MIC C. parapsilosis ATCC 22019
How it was run: (§1)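 Broth microdilution per CLSI M27-A3 in RPMI 1640+MOPS, inoculum from overnight Sabouraud dextrose agar colonies at 35° C; compounds from 1 mg/mL DMSO stocks. MIC read visually against growth control at 48 h, with an added 24 h reading for soraphen.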

[2] = compound concentration 10 ppm, foliar spray, evaluated 7 days after inoculation
C. krusei ATCC 6258 = assay: Anti-Fungal Activity Assay (broth microtiter MIC), C. krusei; format: cell-based, Candida krusei; settings: Pichia kudriavzevii, ATCC6258, 48 h, 3 replicates; MIC recorded at 48 h; read-out: MIC C. krusei ATCC 6258
How it was run: as §1

[3] = test system: Phytophthora capsici (Pc); assay: Growth inhibition assay of fungal pathogens, Pc; format: cell-based; settings: 48 hours, read-out: Concentration at 90% Inhibition, Pc
How it was run: (§2)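 Spores in 17% V8 medium exposed to compound at final 50, 10, 2 ppm or 2, 0.4, 0.08 ppm, with 2% DMSO. OD600 and visual ratings taken at 24 and 48 h, with blank subtracted. Percent growth inhibition derived from 48 h readings relative to 2% DMSO control.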

[4] = test system: Fusarium virguliforme (Fv); assay: Growth inhibition assay of fungal pathogens, Fv; format: cell-based; settings: 48 hours, read-out: Concentration at 90% Inhibition, Fv
How it was run: as §2

[5] = test system: Blumeria graminis f sp. hordei; assay: Foliar protection test, barley powdery mildew control; format: in vivo, Blumeria graminis f sp. hordei on Hordeum vulgare cv. Perry; settings: 168 h, compound concentration 50 ppm, foliar spray, evaluated 7 days after inoculation, read-out: Barley Powdery Mildew Control at 50 ppm
How it was run: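 Barley cv. Perry at first true leaf (6 days) sprayed to wetness on both leaf sides with compound in 5% acetone/0.005% Tween 80, typically at 200, 100, 50, 10 or 2 ppm. Inoculated 24 h later by shaking spores from colonized plants; kept at 20-22 °C, 70% RH. Mildew colonization scored 7 days later as percent control.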

Septoria tritici (St) = assay: Growth inhibition assay of fungal pathogens, St; format: cell-based; settings: Zymoseptoria tritici; 48 hours; read-out: Concentration at 90% Inhibition, St
How it was run: as §2

Fungal ACC2 = Fungal ACC2 (UniProt Q00955); settings: read-out: Fungal ACC2 (IC50, in vitro ACC2 inhibition)
Diplodia maydis (Dm) = assay: Growth inhibition assay of fungal pathogens, Dm; format: cell-based; settings: Stenocarpella maydis; 48 hours; read-out: Concentration at 90% Inhibition, Dm
How it was run: as §2

Botrtyis cinerea (Bc) = assay: Growth inhibition assay of fungal pathogens, Bc; format: cell-based; settings: 48 hours; read-out: Concentration at 90% Inhibition, Bc
How it was run: as §2

[6] = test system: Fusarium moniliforme (Fm); assay: Growth inhibition assay of fungal pathogens, Fm; format: cell-based; settings: Fusarium verticillioides; 48 hours; read-out: Concentration at 90% Inhibition, Fm
How it was run: as §2

[7] = test system: Collectotrichum graminicola (Cg); assay: Growth inhibition assay of fungal pathogens, Cg; format: cell-based; settings: 48 hours; read-out: Concentration at 90% Inhibition, Cg
How it was run: as §2

Rhizoctonia solani (Rs) = assay: Growth inhibition assay of fungal pathogens, Rs; format: cell-based; settings: 48 hours, read-out: Concentration at 90% Inhibition, Rs
C. albicans ATCC 90028 = assay: Anti-Fungal Activity Assay (broth microtiter MIC), C. albicans; format: cell-based, Candida albicans; settings: Candida albicans, ATCC90028, 48 h, 3 replicates; MIC recorded at 48 h; read-out: MIC C. albicans ATCC 90028
How it was run: as §1

Fungal ACC2, sequence (Q00955 whole entry): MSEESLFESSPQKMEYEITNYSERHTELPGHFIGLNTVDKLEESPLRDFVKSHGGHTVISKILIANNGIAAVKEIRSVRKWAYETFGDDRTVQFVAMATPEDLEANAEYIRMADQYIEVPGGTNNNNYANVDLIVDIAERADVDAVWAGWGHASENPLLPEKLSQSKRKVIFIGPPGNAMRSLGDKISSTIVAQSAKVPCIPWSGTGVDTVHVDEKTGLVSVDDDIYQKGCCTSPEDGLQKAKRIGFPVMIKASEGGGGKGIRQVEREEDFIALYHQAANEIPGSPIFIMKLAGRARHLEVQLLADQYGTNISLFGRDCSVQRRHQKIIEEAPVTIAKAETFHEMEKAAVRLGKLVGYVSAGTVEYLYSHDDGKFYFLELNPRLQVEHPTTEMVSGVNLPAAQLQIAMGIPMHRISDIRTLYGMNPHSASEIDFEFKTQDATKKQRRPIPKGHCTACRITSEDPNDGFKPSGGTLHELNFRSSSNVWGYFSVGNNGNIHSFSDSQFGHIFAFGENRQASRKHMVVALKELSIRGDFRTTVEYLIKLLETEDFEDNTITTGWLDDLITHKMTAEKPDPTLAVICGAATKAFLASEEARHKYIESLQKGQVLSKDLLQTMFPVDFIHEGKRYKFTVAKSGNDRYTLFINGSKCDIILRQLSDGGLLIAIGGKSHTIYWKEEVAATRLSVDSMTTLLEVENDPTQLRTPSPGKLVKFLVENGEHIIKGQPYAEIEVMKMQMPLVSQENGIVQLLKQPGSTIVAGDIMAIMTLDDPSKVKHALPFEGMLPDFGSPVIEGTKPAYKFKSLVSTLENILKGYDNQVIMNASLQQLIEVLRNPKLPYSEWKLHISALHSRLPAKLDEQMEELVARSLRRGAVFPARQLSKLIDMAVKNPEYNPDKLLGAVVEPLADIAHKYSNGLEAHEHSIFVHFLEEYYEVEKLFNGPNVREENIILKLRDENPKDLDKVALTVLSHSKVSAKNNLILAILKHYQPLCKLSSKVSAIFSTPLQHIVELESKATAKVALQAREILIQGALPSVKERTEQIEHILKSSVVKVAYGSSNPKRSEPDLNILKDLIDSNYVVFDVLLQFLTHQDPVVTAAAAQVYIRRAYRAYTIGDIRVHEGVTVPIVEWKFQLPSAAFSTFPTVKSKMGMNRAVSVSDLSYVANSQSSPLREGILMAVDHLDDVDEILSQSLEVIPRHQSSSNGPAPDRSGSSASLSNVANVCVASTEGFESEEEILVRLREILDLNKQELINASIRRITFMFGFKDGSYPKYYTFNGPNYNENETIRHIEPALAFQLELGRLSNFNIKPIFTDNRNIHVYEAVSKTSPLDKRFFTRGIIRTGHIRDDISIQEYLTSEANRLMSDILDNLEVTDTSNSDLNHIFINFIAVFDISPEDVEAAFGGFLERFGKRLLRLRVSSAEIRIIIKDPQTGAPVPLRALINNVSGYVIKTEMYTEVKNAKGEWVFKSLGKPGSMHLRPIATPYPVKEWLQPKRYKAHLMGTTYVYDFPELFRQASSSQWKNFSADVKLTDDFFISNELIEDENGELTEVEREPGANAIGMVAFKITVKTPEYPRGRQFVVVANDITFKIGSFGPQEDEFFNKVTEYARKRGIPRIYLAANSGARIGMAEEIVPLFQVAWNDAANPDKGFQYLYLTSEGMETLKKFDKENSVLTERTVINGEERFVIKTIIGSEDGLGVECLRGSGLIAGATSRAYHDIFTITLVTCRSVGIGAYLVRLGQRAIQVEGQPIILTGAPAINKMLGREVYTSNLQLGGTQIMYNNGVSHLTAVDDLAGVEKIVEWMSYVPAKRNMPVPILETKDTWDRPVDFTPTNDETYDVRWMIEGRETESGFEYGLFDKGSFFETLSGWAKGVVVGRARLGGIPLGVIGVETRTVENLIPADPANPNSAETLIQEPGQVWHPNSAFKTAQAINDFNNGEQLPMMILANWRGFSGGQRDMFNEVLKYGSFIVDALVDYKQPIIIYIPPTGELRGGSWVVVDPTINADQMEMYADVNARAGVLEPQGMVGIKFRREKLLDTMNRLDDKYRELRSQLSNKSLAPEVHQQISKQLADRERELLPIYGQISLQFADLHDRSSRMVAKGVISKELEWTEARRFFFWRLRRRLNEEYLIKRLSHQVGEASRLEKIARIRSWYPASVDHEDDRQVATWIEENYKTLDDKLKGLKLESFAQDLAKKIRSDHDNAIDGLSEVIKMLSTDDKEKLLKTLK
Human ACC2, sequence (O00763 whole entry): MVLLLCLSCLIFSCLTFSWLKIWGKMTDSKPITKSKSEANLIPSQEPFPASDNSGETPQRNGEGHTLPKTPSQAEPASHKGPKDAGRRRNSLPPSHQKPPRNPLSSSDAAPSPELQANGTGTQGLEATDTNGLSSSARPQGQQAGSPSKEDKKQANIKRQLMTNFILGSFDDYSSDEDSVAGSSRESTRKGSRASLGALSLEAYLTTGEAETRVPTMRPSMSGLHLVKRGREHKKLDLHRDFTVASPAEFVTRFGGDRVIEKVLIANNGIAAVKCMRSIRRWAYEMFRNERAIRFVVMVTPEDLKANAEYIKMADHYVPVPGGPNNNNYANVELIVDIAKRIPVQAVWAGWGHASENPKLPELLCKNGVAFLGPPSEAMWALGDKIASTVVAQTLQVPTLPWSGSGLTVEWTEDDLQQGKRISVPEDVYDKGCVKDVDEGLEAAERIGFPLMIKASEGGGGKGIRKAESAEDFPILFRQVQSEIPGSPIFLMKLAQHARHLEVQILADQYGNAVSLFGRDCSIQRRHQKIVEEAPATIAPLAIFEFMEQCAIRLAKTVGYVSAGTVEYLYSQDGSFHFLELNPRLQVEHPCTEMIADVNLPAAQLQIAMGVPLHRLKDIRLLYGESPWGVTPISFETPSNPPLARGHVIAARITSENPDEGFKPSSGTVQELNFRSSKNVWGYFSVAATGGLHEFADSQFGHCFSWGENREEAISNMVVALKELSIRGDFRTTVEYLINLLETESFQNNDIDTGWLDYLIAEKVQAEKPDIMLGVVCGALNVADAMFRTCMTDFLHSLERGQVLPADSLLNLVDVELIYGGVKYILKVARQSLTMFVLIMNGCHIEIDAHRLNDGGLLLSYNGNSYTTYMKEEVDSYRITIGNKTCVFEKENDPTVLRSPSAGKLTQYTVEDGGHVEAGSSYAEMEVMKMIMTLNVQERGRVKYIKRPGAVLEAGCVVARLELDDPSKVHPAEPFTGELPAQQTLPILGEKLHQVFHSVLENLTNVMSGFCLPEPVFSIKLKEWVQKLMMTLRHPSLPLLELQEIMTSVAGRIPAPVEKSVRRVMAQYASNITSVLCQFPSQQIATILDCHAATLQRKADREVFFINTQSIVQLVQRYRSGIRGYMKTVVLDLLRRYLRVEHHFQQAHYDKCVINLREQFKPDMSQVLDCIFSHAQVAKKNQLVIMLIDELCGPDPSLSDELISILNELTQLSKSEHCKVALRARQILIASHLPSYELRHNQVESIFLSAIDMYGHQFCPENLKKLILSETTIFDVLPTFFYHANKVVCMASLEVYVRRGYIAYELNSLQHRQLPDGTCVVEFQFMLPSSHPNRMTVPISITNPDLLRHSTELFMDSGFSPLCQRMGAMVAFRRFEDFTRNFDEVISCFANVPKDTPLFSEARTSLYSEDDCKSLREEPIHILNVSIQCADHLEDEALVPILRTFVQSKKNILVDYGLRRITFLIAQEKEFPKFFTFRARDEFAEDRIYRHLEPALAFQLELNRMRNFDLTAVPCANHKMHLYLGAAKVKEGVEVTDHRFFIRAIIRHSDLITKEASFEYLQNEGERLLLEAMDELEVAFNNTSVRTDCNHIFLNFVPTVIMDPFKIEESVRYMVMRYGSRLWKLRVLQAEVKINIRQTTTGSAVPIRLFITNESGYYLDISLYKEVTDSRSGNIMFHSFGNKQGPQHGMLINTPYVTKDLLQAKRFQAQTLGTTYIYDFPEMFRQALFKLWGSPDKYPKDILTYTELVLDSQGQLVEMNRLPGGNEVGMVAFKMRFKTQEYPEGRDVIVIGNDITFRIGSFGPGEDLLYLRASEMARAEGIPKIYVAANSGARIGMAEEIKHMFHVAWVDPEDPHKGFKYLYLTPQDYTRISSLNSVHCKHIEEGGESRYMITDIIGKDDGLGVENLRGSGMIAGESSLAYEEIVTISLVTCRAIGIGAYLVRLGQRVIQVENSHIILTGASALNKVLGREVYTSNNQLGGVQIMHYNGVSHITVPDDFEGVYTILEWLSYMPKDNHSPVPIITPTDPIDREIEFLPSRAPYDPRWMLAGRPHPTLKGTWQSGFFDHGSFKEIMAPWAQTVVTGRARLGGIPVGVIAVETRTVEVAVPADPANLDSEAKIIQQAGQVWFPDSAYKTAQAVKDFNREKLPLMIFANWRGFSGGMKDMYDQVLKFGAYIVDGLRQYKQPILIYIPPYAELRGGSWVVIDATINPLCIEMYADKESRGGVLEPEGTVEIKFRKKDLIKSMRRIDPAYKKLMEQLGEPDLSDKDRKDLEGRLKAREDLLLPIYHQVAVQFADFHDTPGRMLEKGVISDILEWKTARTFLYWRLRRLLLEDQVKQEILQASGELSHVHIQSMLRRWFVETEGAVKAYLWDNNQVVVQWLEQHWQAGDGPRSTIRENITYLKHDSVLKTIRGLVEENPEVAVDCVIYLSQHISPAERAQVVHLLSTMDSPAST

Row | Structure (SMILES) | IC50 (Human ACC2) [nM] | MIC [1] [µg/mL] | Barley Powdery Mildew Control at 10 ppm [2] | MIC (C. krusei ATCC 6258) [µg/mL] | IC90 [3] [µg/mL] | IC90 [4] [µg/mL] | pest or weed control at 50 ppm [5] [%] | IC90 (Septoria tritici (St)) [µg/mL] | IC50 (Fungal ACC2) [nM] | IC90 (Diplodia maydis (Dm)) [µg/mL] | IC90 (Botrtyis cinerea (Bc)) [µg/mL] | IC90 [6] [µg/mL] | IC90 [7] [µg/mL] | IC90 (Rhizoctonia solani (Rs)) [µg/mL] | MIC (C. albicans ATCC 90028) [µg/mL]
1 | COc1ccc(F)cc1[C@H](Cn1c(=O)n([C@@H]2CCCNC2=O)c(=O)c2c(C)c(-n3nccn3)sc21)OCCO [Compound I-71, 1-((R)-2-(5-fluoro-2-methoxyphenyl)-2-(2-hydroxy-ethoxy)ethyl)-5-methyl-3-((R)-2-oxopiperidin-3-yl)-6-(2H-1,2,3-triazol-2-yl)thieno[2,3-d]pyrimidine-2,4(1H,3H)-dione] | 2 to 10 | 2.1 to 4 (≈ 3.76 to 7.16 µM) | D (provided a compound having <25% control of barley powdery mildew) | 2.1 to 4 (≈ 3.76 to 7.16 µM) | > 50 | 2 (≈ 3.58 µM) | 50 to 69 | > 50 | 0.7 to 2 | > 50 | 2 (≈ 3.58 µM) | 2 (≈ 3.58 µM) | 10 (≈ 17.9 µM) | 2 (≈ 3.58 µM) | 2.1 to 4 (≈ 3.76 to 7.16 µM)
2 | COc1ccc(F)cc1[C@H](Cn1c(=O)n([C@H]2CCCN(C)C2=O)c(=O)c2c(C)c(-n3nccn3)sc21)OCCO [Compound I-72, 1-((R)-2-(5-fluoro-2-methoxyphenyl)-2-(2-hydroxyethoxy)ethyl)-5-methyl-3-((S)-1-methyl-2-oxopiperidin-3-yl)-6-(2H-1,2,3-triazol-2-yl)thieno[2,3-d]pyrimidine-2,4(1H,3H)-dione] | 2 to 10 | 2.1 to 4 (≈ 3.67 to 6.99 µM) | D (provided a compound having <25% control of barley powdery mildew) | 2.1 to 4 (≈ 3.67 to 6.99 µM) | > 50 | 2 (≈ 3.49 µM) | 25 to 49 | > 50 | 0.7 to 2 | 10 (≈ 17.5 µM) | > 50 | 2 (≈ 3.49 µM) | 10 (≈ 17.5 µM) | 2 (≈ 3.49 µM) | 2.1 to 4 (≈ 3.67 to 6.99 µM)
3 | COc1ccc(F)cc1[C@H](Cn1c(=O)n([C@@H]2CCCN(C)C2=O)c(=O)c2c(C)c(-n3nccn3)sc21)OCCO [Compound I-73, 1-((R)-2-(5-fluoro-2-methoxyphenyl)-2-(2-hydroxy-ethoxy)ethyl)-5-methyl-3-((R)-1-methyl-2-oxopiperidin-3-yl)-6-(2H-1,2,3-triazol-2-yl)thieno[2,3-d]pyrimidine-2,4(1H,3H)-dione] | 10 to 100 | 2.1 to 4 (≈ 3.67 to 6.99 µM) | D (provided a compound having <25% control of barley powdery mildew) | 2.1 to 4 (≈ 3.67 to 6.99 µM) | > 50 | 2 (≈ 3.49 µM) | 50 to 69 | > 50 | 0.7 to 2 | 2 (≈ 3.49 µM) | 10 (≈ 17.5 µM) | 2 (≈ 3.49 µM) | 2 (≈ 3.49 µM) | 2 (≈ 3.49 µM) | 2.1 to 4 (≈ 3.67 to 6.99 µM)
4 | COc1ccc(F)cc1[C@H](Cn1c(=O)n([C@H]2CCNC2=O)c(=O)c2c(C)c(-n3nccn3)sc21)OCCO [Compound I-80, 1-((R)-2-(5-fluoro-2-methoxyphenyl)-2-(2-hydroxy-ethoxy)ethyl)-5-methyl-3-((S)-2-oxopyrrolidin-3-yl)-6-(2H-1,2,3-triazol-2-yl)thieno[2,3-d]pyrimidine-2,4(1H,3H)-dione] | 2 to 10 | 2.1 to 4 (≈ 3.86 to 7.35 µM) | D (provided a compound having <25% control of barley powdery mildew) | 2.1 to 4 (≈ 3.86 to 7.35 µM) | > 50 | 10 (≈ 18.4 µM) | 25 to 49 | > 50 | 0.7 to 2 | > 50 | 2 (≈ 3.67 µM) | 2 (≈ 3.67 µM) | > 50 | 10 (≈ 18.4 µM) | 2.1 to 4 (≈ 3.86 to 7.35 µM)

Source: patent publication US20190330224A1, “ACC INHIBITORS AND USES THEREOF” (Gilead Apollo, LLC, priority 2015, published 2019)
